# From patent US8329681B2, “Methods and compositions for the efficient delivery of therapeutic agents to cells and animals” (University of Massachusetts, priority 2005, dated 2012)
# Assays:
# [1] = system: CDK9 expression; assay: In vivo delivery of CDK9 siRNA with liposome by tail vein injection, CDK9 expression in spleen; set-up: species or system BALB/c mice; details: Cy3-labeled CDk9 siRNA (25 μg) and liposome (125 μg), repeated 4 and 8 h later, within the initial 24 h after treatment
# Procedure: (§1) Total RNA was extracted from tissues or cultured cells using Trizol (Invitrogen, Carlsbad, Calif.), and real-time RT-PCR for CDK9 and GAPDH mRNA quantification was carried out using 200 ng of total RNA and the QuantiTect SYBR Green RT-PCR Kit (Qiagen, Valencia, Calif.) according to the manufacturer's instructions. The ratio of CDK9 and GAPDH mRNA was calculated and expressed as a group average relative to the control group. The specific probe for detection of CDK9 mRNA levels was designed to the following regions of the CDK9 mRNA ORF, the forward primer 5′ TCGGACCAA AGCCTCACCGTATAA 3′, the reverse primer 5′ […] TTG 3′
# (§2) Male BALB/c mice, 6-8 weeks of age and weighting 20-22 g, were purchased form the Jackson Laboratory (Bar Harbor, Me.). Synthetic siRNA were delivered in vivo using following method. For each mice 25 μg of siRNA in 100 μl of HEPES Buffered Saline (20 mM HEPES, 150 mM NaCl, pH 7.4) was transferred into a sterile tube. In a separate sterile tube 125 μg of liposome was mixed with 200 μl HEPES Buffered Saline. The siRNA solution was transferred to the tube containing liposome solution and then incubated at room temperature for 20 minutes. 200 μl of the complexes was injected via the tail vein, using a 1-ml syringe and 27-gauge needle. The injection was repeated 4 and 8 h later. Control mice were injected with an equal volume of liposome. At 24 h after the last injection, the mice were sacrificed and tissues were harvested for further analysis. CDK9 expression level was normalized with GAPDH and then compared to those obtained from control animals and shown as percent expression. The data represent the mean value +/− SD of three to five mice in each group.
# Briefly, the ability of the new synthesized liposome to deliver siRNA in mice was investigated. BALB/c mice were administrated with complexes of Cy3-labeled CDk9 siRNA (25 μg) and liposome (125 μg) via normal pressure tail vein injection. The injection was repeated 4 and 8 h later. Control mice were administrated with an equal amount of liposome. […]
# [2] = system: FL83B cells; assay: Cell Titer 96 AQueous One Solution (MTS) cytotoxicity assay; type: cell-based, rat; details: liposomal formulation alone or in combination with DOPE and DOPC as co-lipid
# Procedure: Alternatively, the cytotoxicity of the lipids was measured using the Cell Titer 96® AQueous One Solution Cell Proliferation Assay. The Cell Titer 96® AQueous One Solution Reagent contains a tetrazolium compound [3-(4,5-dimethylthiazol-2-yl)-5-(3-carboxymethoxyphenyl)-2(4-sulfophenyl)-2H-tetrazolium, inner salt; MTS^17] and an electron coupling reagent (phenazine ethosulfate; PES). The cytotoxicity assay was performed in 96 well plates by maintaining the ratio of number of cells to amount of cationic lipid constant as in transfection experiments. MTS was added 24 hours after transfection. Cell Titer 96® AQueous One Solution Reagent (20 ul) was pipetted into each well of the 96-well assay plate containing the samples in 100 μl of culture medium. In case of HeLa cells the plates were incubated for 2 hours, whereas for FL83B cells, plates were incubated for 4 hours at 37° C. in a humidified, 5% CO2 atmosphere. Absorbance was then recorded at 490 nm.
# In a second experiment, FL83B and HeLa cells were plated on 96 well plate 18 hours prior to transfection. Then, liposome was added to each well and incubated for 24 hours. Thereafter, Cell Titer 96® AQueous One Solution Reagent was added and incubated for 4 hours. The MTS tetrazolium compound (Owen's reagent) is bioreduced by viable cells into a colored formazan product that is soluble in tissue culture […]. The absorbance of the formazan was measured at 490 nm with a 96 well plate reader.
# [3] = system: CDK9 expression; assay: Liposome-mediated CDK9 siRNA gene knock-down in FL83B cells, real-time RT-PCR; type: cell-based, rat; details: CDK9 siRNA transfected with liposome
# Procedure: as §1
# FL83B were cultured in F-12K medium (ATCC, Manassas, Va.) with 10% fetal bovine serum at 37° C. in 5% CO2. FL83B were plated on 6-well plates at 70% confluency 24 hours before transfection. […] Gene silencing was monitored by Real-time RT-PCR.
# The complexes of CDK9 siRNA (2 μg) and DOATP-Chol (10 μg) or DMTAP-Chol (10 μg) or Transfast-Chol […] were added to Opti-MEM I medium and cells were incubated in the mixture for 6 hr. […] RNA was extracted from cells using Trizol Reagent and real-time RT-PCR for CDK9 and GAPDH mRNA quantification was carried out using 200 ng of total RNA and the QuantiTect SYBR Green RT-PCR Kit. The ratio of CDK9 and GAPDH mRNA was calculated and expressed as a group average relative to the control group. […]
# [4] = Tissue distribution of Cy3-labeled siRNA by fluorescence microscopy; type: in vivo, BALB/c mice; details: 24 h after injection
# Procedure: Freshly excised tissues were frozen in liquid nitrogen and mounted for crytostat sectioning. Sections of 5 μm were fixed with in 100% acetone at 4° C. for 10 min, air-dried and mounted in Vectashild with DAPI (Vector Laboratories, Inc. Burlingame, Calif.). Slides were viewed and recorded under Leica confocal microscope.
# as §2, with “CDK9 expression level was normalized with GAPDH and then compared to those obtained from control animals and shown as percent expression. The data represent the mean value +/− SD of three to five mice in each group.” left out
# The tissue distribution patterns of siRNA delivered in BALB/c mice using DOTAP-Chol were assessed by fluorescence microscopy.
smiles,measurement,setting,value
"CCCCCCCCC=CCCCCCCCC(=O)OC(COC(=O)CCC(=O)OC1CCC2(C)C(=CCC3C2CCC2(C)C(C(C)CCCC(C)C)CCC32)C1)C[N+](C)(C)C.[I-] (stereo not shown) [Lipid 8, N,N,N-Trimethyl-N-[2-(9(Z)-octadecanoyloxy),3-succinyloxy(4-cholesteryloxy)-propyl]ammonium iodide]",CDK9 expression level in the spleen decreased by,[1],28%
same,cytotoxicity as compared to a control,[2],non-toxic
same,knockdown of CDK9 expression,[3],67%
same,tissues with the highest fluorescent intensity of delivered Cy3-labeled siRNA,[4],"the spleen, the lung and the liver"
